Results from patent US4185119A, “Antiallergic methods” (priority 1977, dated 1980).
Counter-ions that a name gives are not always drawn.

System: P.C.A. reaction in S.D. strain rats
Assay: Inhibition test of P.C.A. reaction in S.D. strain rats, rat hyperimmune antiserum against egg albumin
Format: in vivo
Method: (b) Rat hyperimmune antiserum against egg albumin
A solution of egg albumin (20 mg.) in normal saline (1 ml.) was mixed with complete adjuvant (1 ml.) (made by Difco Laboratories) to given an emulsion. The emulsion was subcutaneously given in a single dose of 1 ml. divided equally (0.25 ml.) to the four pads of male S.D. strain rats aged 6 weeks, each weighing about 200 g. (The first immunization).
One week after the administration, an emulsion which was prepared by mixing a solution of egg albumin (10 mg.) in normal saline (1 ml.) with complete adjuvant (1 ml.) was further given subcutaneously (at 3 places) and intramuscularly (at 1 place) in a single dose of 1 ml. divided equally (0.25 ml.) to thigh of the same rats. (The second immunization).
Three weeks after the second administration, a solution of egg albumin (1 mg.) in normal saline (1 ml.) was further given intracutaneously in a single dose of 0.3 ml. divided equally (0.1 ml.) to 3 places of the same rats. (The third immunization).
One week after the third administration, blood samples were collected from rats and treated in substantially the same manner as described in the above item (a). The antisera thus obtained were stored at -80° C. prior to use.
(2) Inhibition test of P.C.A. (Passive Cutaneous Anaphylaxis) reaction
(a) Inhibitory effect on P.C.A. reaction in S.D. strain rats
Fifteen male S.D. strain rats aged 8 weeks, each weighing about 270 g were divided equally into 3 groups.
A rat reaginic antiserum (0.07 ml.) as prepared by the above (1)-(a) was given intracutaneously to the depilated back of each rat of Group I and Group II. On the other hand, a rat normal serum (0.07 ml.) was given intracutaneously to the depilated back of each rat of Group III, respectively.
Thirty hours after the administration, a normal saline (0.5 ml.) containing egg albumin (7.5 mg.) and Evans blue (2.5 mg.) was intravenously given to each rat of Groups I-III in order to bring about P.C.A., respectively.
Beforehand, 3 hours, 1 hour and […] before the intravenous administration to bring about P.C.A., a normal saline (1 ml.) containing the prescribed amount of N-methyllaurotetanine hydrochloride and carboxymethylcellulose (0.5 %) was given orally, intraperitoneally or intravenously to each rat of Group I and a normal saline (1 ml.) containing only carboxymethylcellulose (0.5% was also given orally, intraperitoneally or intravenously to each rat of Group II.
Thirty minutes after challenge with antigen, the animals were sacrificed and then skinned. To each of the sensitized spots punched, was added a mixture (7 ml.) of acetone and 2% aqueous sodium alkylbenzenesulfonate solution (4:1) and then the mixture was homogenized. The homogenate was shaken at ambient temperature for 2 hours and filtered. Optical density at 620 nm of the filtrate was determined and from the value of the optical density, inhibitory effect of P.C.A. reaction was calculated by using the following equation. [formula] A: Optical Density Value of Group II B: Optical Density Value of Group I
C: Optical Density Value of Group III
Further, an inhibition test on P.C.A. reaction using the rat hyperimmuneantiserum against egg albumin was carried out in substantially the same manner as described in the above, excepting that the intravenous administration to bring about P.C.A. was carried out at 5.5 hours after the administration of the serum and antiserum. And inhibitory effect on the P.C.A. reaction was also calculated in substantially the same manner as described in the above.

COc1cc2c(cc1O)CC1c3c(cc(OC)c(OC)c3-2)CCN1C (stereo not drawn) [N-Methyllaurotetanine hydrochloride]
Inhibitory effect on P.C.A. reaction (intraperitoneal, 4 mg/kg): 20%
Inhibitory effect on P.C.A. reaction (intraperitoneal, 13 mg/kg): 60%
Inhibitory effect on P.C.A. reaction (intraperitoneal, 40 mg/kg): 72%
ED50 (intravenous): 4 mg/kg
Inhibitory effect on P.C.A. reaction (intravenous, 1 mg/kg): 23%
Inhibitory effect on P.C.A. reaction (intravenous, 3 mg/kg): 46%
Inhibitory effect on P.C.A. reaction (intravenous, 9 mg/kg): 65%
ED50 (ip, intraperitoneal): 11 mg/kg
ED50 (oral): 110 mg/kg
Inhibitory effect on P.C.A. reaction (oral, 20 mg/kg): 42%
Inhibitory effect on P.C.A. reaction (oral, 66 mg/kg): 33%
Inhibitory effect on P.C.A. reaction (oral, 200 mg/kg): 81%
